Data as given in ChEMBL document CHEMBL1201862, “PubChem BioAssay data set” (2004).
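All cell lines were grown in 96-well plates and treated with compound for 48 hours. Here, GI50 denotes the concentration required for 50% inhibition of growth.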 Active and inactive are the calls of the source. Rule as the data show it: active = GI50 up to about 1.1 µM and inactive = higher.

Columns and labels:
Assay in all cases: DTP human tumour cell line panel, 48 h
[1] = tested on: Malme-3M
[2] = tested on: NCI/ADR-RES
[3] = tested on: DU-145
[4] = tested on: SK-MEL-28
[5] = tested on: NCI-H522
[6] = tested on: Hs-578T
[7] = tested on: HT-29
[8] = tested on: NCI-H460
[9] = tested on: 786-0
[10] = tested on: SW-620
[11] = tested on: MDA-N
[12] = tested on: HOP-62
[13] = tested on: OVCAR-5
[14] = tested on: CCRF-CEM
[15] = tested on: OVCAR-8
[16] = tested on: SF-295
[17] = tested on: ACHN
[18] = tested on: RXF 393
[19] = tested on: OVCAR-4

Compound	GI50 [1]	GI50 [2]	GI50 [3]	GI50 [4]	GI50 [5]	GI50 [6]	GI50 [7]	GI50 [8]	GI50 [9]	GI50 [10]	GI50 [11]	GI50 [12]	GI50 [13]	GI50 [14]	GI50 [15]	GI50 [16]	GI50 [17]	GI50 [18]	GI50 [19]
O=C(O)c1cc(-c2ccc3cc(O)c(O)cc3c2)ccc1O	> 12.5 µM (inactive)	> 12.5 µM (inactive)	> 12.5 µM (inactive)	> 12.5 µM (inactive)	> 12.5 µM (inactive)	> 12.5 µM (inactive)	> 12.5 µM (inactive)	> 12.5 µM (inactive)	> 12.5 µM (inactive)	> 12.5 µM (inactive)	3.88 µM (inactive)	> 12.5 µM (inactive)	> 12.5 µM (inactive)	> 12.5 µM (inactive)	> 12.5 µM (inactive)	> 12.5 µM (inactive)	> 12.5 µM (inactive)	–	–
O=C(CCc1ccc(O)cc1)NCCc1ccc(O)cc1	> 100 µM (inactive)	> 100 µM (inactive)	> 100 µM (inactive)	> 100 µM (inactive)	> 100 µM (inactive)	> 100 µM (inactive)	> 100 µM (inactive)	> 100 µM (inactive)	> 100 µM (inactive)	–	> 100 µM (inactive)	> 100 µM (inactive)	> 100 µM (inactive)	> 100 µM (inactive)	> 100 µM (inactive)	> 100 µM (inactive)	62.4 µM (inactive)	> 100 µM (inactive)	> 100 µM (inactive)
Oc1ccc(C(c2ccc(O)cc2)c2ccc(O)cc2)cc1	16.5 µM (inactive)	18.9 µM (inactive)	27.4 µM (inactive)	19.3 µM (inactive)	17.1 µM (inactive)	21.7 µM (inactive)	19 µM (inactive)	18.8 µM (inactive)	17.6 µM (inactive)	26.8 µM (inactive)	25.9 µM (inactive)	–	–	33.6 µM (inactive)	15.6 µM (inactive)	41.4 µM (inactive)	27.3 µM (inactive)	17.2 µM (inactive)	9.71 µM (inactive)
N/C(=N/c1ccc(O)cc1)S(=O)(=O)O	> 100 µM (inactive)	> 100 µM (inactive)	> 100 µM (inactive)	–	> 100 µM (inactive)	> 100 µM (inactive)	> 100 µM (inactive)	> 100 µM (inactive)	> 100 µM (inactive)	> 100 µM (inactive)	> 100 µM (inactive)	> 100 µM (inactive)	> 100 µM (inactive)	> 100 µM (inactive)	> 100 µM (inactive)	> 100 µM (inactive)	> 100 µM (inactive)	> 100 µM (inactive)	> 100 µM (inactive)
OCC1OC(O)C(/N=C\c2ccc3c(c2)OCO3)C(O)C1O (stereo not drawn)	> 100 µM (inactive)	> 100 µM (inactive)	> 100 µM (inactive)	> 100 µM (inactive)	> 100 µM (inactive)	> 100 µM (inactive)	> 100 µM (inactive)	> 100 µM (inactive)	> 100 µM (inactive)	> 100 µM (inactive)	> 100 µM (inactive)	> 100 µM (inactive)	> 100 µM (inactive)	–	> 100 µM (inactive)	> 100 µM (inactive)	> 100 µM (inactive)	> 100 µM (inactive)	> 100 µM (inactive)
COC1CC2C=CC3C4OC2(/C(C)=C/C(C)C(C(C)O)OC1=O)C3C(O)C(C)C4OC(=O)c1ccc[nH]1 (stereo not drawn)	–	66.2 µM (inactive)	82 µM (inactive)	> 100 µM (inactive)	> 100 µM (inactive)	94 µM (inactive)	66.8 µM (inactive)	67 µM (inactive)	94.8 µM (inactive)	> 100 µM (inactive)	45.5 µM (inactive)	> 100 µM (inactive)	> 100 µM (inactive)	25.9 µM (inactive)	48.9 µM (inactive)	30.9 µM (inactive)	> 100 µM (inactive)	–	74 µM (inactive)
CCCCCCCCCCCCP(=O)(O)OCC(N)C(=O)O (stereo not drawn)	> 100 µM (inactive)	31.4 µM (inactive)	40.4 µM (inactive)	43.3 µM (inactive)	5.22 µM (inactive)	20.2 µM (inactive)	33.7 µM (inactive)	23.7 µM (inactive)	27.5 µM (inactive)	40.3 µM (inactive)	21.4 µM (inactive)	16.1 µM (inactive)	34.1 µM (inactive)	–	35.5 µM (inactive)	17.4 µM (inactive)	40.3 µM (inactive)	48.1 µM (inactive)	76.2 µM (inactive)
COc1ccc2[nH]c3c(c2c1)COc1ccccc1C3=O	> 100 µM (inactive)	> 100 µM (inactive)	> 100 µM (inactive)	> 100 µM (inactive)	> 100 µM (inactive)	69 µM (inactive)	> 100 µM (inactive)	> 100 µM (inactive)	> 100 µM (inactive)	> 100 µM (inactive)	> 100 µM (inactive)	> 100 µM (inactive)	> 100 µM (inactive)	> 100 µM (inactive)	> 100 µM (inactive)	> 100 µM (inactive)	> 100 µM (inactive)	–	> 100 µM (inactive)
COC(=O)[C@@H]1[C@H](O)CC[C@H]2[C@@]1(C)CC[C@@H](C)[C@]2(COC(C)=O)CC(=O)c1ccoc1	–	> 50 µM (inactive)	> 50 µM (inactive)	> 50 µM (inactive)	35.7 µM (inactive)	> 50 µM (inactive)	> 50 µM (inactive)	> 50 µM (inactive)	> 50 µM (inactive)	> 50 µM (inactive)	> 50 µM (inactive)	–	> 50 µM (inactive)	16.7 µM (inactive)	> 50 µM (inactive)	> 50 µM (inactive)	> 50 µM (inactive)	> 50 µM (inactive)	25.2 µM (inactive)
CC12CCC(=O)N1c1cncnc1N2 (stereo not drawn)	> 10 µM (inactive)	> 10 µM (inactive)	> 10 µM (inactive)	–	> 10 µM (inactive)	> 10 µM (inactive)	> 10 µM (inactive)	> 10 µM (inactive)	> 10 µM (inactive)	> 10 µM (inactive)	> 10 µM (inactive)	–	> 10 µM (inactive)	> 10 µM (inactive)	> 10 µM (inactive)	> 10 µM (inactive)	> 10 µM (inactive)	–	> 10 µM (inactive)
C=C(C)[C@@H]1CCc2c(c(C)cc(O)c(=O)c2O)C1	3.43 µM (inactive)	0.583 µM (active)	2.18 µM (inactive)	4.63 µM (inactive)	0.247 µM (active)	2.16 µM (inactive)	3.01 µM (inactive)	0.102 µM (active)	1.41 µM (inactive)	0.643 µM (active)	3.08 µM (inactive)	–	> 73.1 µM (inactive)	0.412 µM (active)	0.706 µM (active)	2 µM (inactive)	1.18 µM (inactive)	2.6 µM (inactive)	0.146 µM (active)
Cc1ccc2c(c1)-c1nc(N)c(C#N)c(-c3ccccc3)c1CCS2(=O)=O	23.8 µM (inactive)	38.5 µM (inactive)	65.2 µM (inactive)	> 100 µM (inactive)	39.2 µM (inactive)	20.8 µM (inactive)	> 100 µM (inactive)	75.2 µM (inactive)	19 µM (inactive)	> 100 µM (inactive)	> 100 µM (inactive)	30.5 µM (inactive)	55 µM (inactive)	–	23.1 µM (inactive)	–	38.5 µM (inactive)	–	16.7 µM (inactive)
CN(CCSCCN(C)C(=O)OC(C)(C)C)C(=O)OC(C)(C)C	> 100 µM (inactive)	> 100 µM (inactive)	> 100 µM (inactive)	> 100 µM (inactive)	> 100 µM (inactive)	> 100 µM (inactive)	> 100 µM (inactive)	> 100 µM (inactive)	> 100 µM (inactive)	> 100 µM (inactive)	> 100 µM (inactive)	> 100 µM (inactive)	> 100 µM (inactive)	> 100 µM (inactive)	> 100 µM (inactive)	> 100 µM (inactive)	> 100 µM (inactive)	–	> 100 µM (inactive)
C=C1C[C@@H]2O[C@H]3[C@H]4[C@@H](C[C@@H](C)[C@@H](OC(C)=O)[C@H]42)[C@@H](C)CO[C@@]3(C)[C@H](OC(=O)CCCCCCC)C[C@H]1O	–	15.9 µM (inactive)	14.9 µM (inactive)	17.4 µM (inactive)	16.4 µM (inactive)	14.4 µM (inactive)	20.1 µM (inactive)	16.1 µM (inactive)	15.5 µM (inactive)	21.4 µM (inactive)	16.7 µM (inactive)	17.4 µM (inactive)	17.5 µM (inactive)	14.3 µM (inactive)	16.2 µM (inactive)	21.7 µM (inactive)	20.7 µM (inactive)	18.9 µM (inactive)	12.8 µM (inactive)
CCOC(=O)c1c[nH]c2c(Sc3ccccc3)nccc2c1=O	–	> 100 µM (inactive)	90.8 µM (inactive)	> 100 µM (inactive)	19.7 µM (inactive)	> 100 µM (inactive)	97.5 µM (inactive)	> 100 µM (inactive)	> 100 µM (inactive)	> 100 µM (inactive)	> 100 µM (inactive)	> 100 µM (inactive)	> 100 µM (inactive)	22.3 µM (inactive)	> 100 µM (inactive)	> 100 µM (inactive)	> 100 µM (inactive)	–	> 100 µM (inactive)
Cc1cccc2oc3c(CC(=O)O)cccc3c(=O)c12	> 100 µM (inactive)	> 100 µM (inactive)	> 100 µM (inactive)	> 100 µM (inactive)	> 100 µM (inactive)	> 100 µM (inactive)	> 100 µM (inactive)	> 100 µM (inactive)	> 100 µM (inactive)	> 100 µM (inactive)	> 100 µM (inactive)	> 100 µM (inactive)	–	> 100 µM (inactive)	> 100 µM (inactive)	> 100 µM (inactive)	> 100 µM (inactive)	–	> 100 µM (inactive)
